From US10526579B2, “Podocyte cultures and uses thereof” (RUSH UNIVERSITY MEDICAL CENTER, priority 2013, dated 2020)

What was measured:
cultured podocytes [1] = experiment: High-content focal adhesion assay in cultured differentiated podocytes (anti-paxillin stain); type: cell-based, murine; conditions: 48 h at 37° C., 96-well plates
Experimental: FIG. 6. […] Differentiated podocytes were cultured in 96-well multiwell plates. Cells were either kept in normal cell culture media or were treated with increasing concentration of PAN for 48 h at 37° C. Subsequently, the cells were fixed with paraformaldehyde and the focal adhesions were stained using an anti-paxillin antibody. Cells were imaged using PerkinElmer OPERA High-content screening microscope and the images were analyzed using PerkinElmer Columbus analysis system to […] in each well of the multiwell plate. FIGS. 6A and 6B show representative images of untreated (A) and PAN-treated (B) podocytes. […] These two parameters also gave a reproducible IC50 value for PAN as an in vitro podocyte damaging agent. Each data point represents average count per cell (from approximately 500-2000 cells/well) from a single well.
FIG. 7. Focal adhesion protection with Mizouribine. […] Cells were imaged using PerkinElmer OPERA High-content screening microscope and the images were analyzed using PerkinElmer Columbus analysis system to count F-actin fibers per cell in each well of the multiwell plate. […] The method allowed quantitative assessment of podocyte protection in a dose-response fashion using these parameters based on the podocyte focal adhesions when treated with the compounds PAN and mizouribine. […]

cultured podocytes [2] = experiment: High-content F-actin stress fiber assay in cultured differentiated podocytes (phalloidin stain); type: cell-based, murine; conditions: 48 h at 37° C., 96-well plates
Experimental: A dose-response curve showing the effects of increasing concentration of podocyte injuring drug puromycin aminonucleoside (PAN) on various cellular parameters, including the intensity and the number of actin fibers, in cultured podocytes. Differentiated podocytes were cultured in 96-well multiwell plates. Cells were either kept in normal cell culture media or were treated with increasing concentration of PAN for 48 h at 37° C. Subsequently, the cells were fixed with paraformaldehyde and the filamentous actin (F-actin) fibers stained using Alexa Fluor 594-labeled phalloidin. Cells were imaged using PerkinElmer OPERA High-content screening microscope and the images were analyzed using PerkinElmer Columbus analysis system to count F-actin fibers per cell in each well of the multiwell plate. FIGS. 4A and 4B show representative images of untreated (A) and PAN-treated (B) podocytes. […] These two parameters also gave a reproducible IC50 value for PAN as an in vitro podocyte damaging agent. Each data point represents average F-actin fiber count per cell (from approximately 500-2000 cells/well) from a single well.
FIG. 5. […] Cells were imaged using PerkinElmer OPERA High-content screening microscope and the images were analyzed using PerkinElmer Columbus analysis system to count F-actin fibers per cell in each well of the multiwell plate. […]

[3] = increasing concentration of PAN
[4] = co-treatment with PAN and increasing concentration of mizouribine

Compound	effect on number and intensity of focal adhesions (relative spot to background intensity; FA - number of objects) (cultured podocytes [1]; [3])	effect on intensity and number of actin fibers (relative spot to background intensity; whole cell fibers - number of objects) (cultured podocytes [2]; [3])	protection of podocyte focal adhesions from PAN damage (cultured podocytes [1]; [4])	protection of podocyte actin fibers from PAN damage (cultured podocytes [2]; [4])
CN(C)c1ncnc2c1ncn2[C@@H]1O[C@H](CO)[C@@H](N)[C@H]1O [PAN, puromycin aminonucleoside]	leads to reduced focal adhesions	podocyte damage in a dose-response fashion	–	–
NC(=O)c1ncn([C@@H]2O[C@H](CO)[C@@H](O)[C@H]2O)c1O [Mizouribine, mizouribine]	–	–	protects the focal adhesions from PAN damage	dose-dependently prevents podocyte damage
